Measured values from US8551721B2, “Bioluminescent detection of cyanohydroxy benzothiazole compounds” (Promega Corporation, priority 2008, dated 2013).

Legend:
Assay type in all cases: biochemical
Settings in all cases: 2 hour incubation at 37° C., plus vs minus UDPGA, background corrected
[1] = biological target: T1, UGT 1A1 (Homo sapiens, UniProt P22309); experiment: UGT activity: utilization of substrate by recombinant UGT 1A1 Supersomes
T1 construct: purchased BD Gentest; host or cells: insect cells (microsomes)
T1 sequence (P22309 26-533): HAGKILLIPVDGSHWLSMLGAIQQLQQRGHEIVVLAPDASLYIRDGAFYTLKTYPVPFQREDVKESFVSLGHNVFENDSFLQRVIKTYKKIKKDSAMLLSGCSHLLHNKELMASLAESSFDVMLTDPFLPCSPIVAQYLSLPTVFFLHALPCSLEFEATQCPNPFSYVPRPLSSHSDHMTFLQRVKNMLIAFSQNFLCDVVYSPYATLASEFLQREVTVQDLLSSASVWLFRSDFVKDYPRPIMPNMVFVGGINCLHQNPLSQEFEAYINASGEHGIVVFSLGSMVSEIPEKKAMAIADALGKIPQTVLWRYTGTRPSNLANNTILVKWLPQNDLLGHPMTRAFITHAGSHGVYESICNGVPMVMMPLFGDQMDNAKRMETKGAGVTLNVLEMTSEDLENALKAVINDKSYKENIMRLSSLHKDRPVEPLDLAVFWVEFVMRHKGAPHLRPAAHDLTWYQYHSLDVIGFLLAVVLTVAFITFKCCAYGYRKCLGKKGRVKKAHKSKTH
Experimental: (§1) The invention includes a method of determining activity of the uridine 5′-diphospho-glucuronosyltransferase (UDP-glucuronosyltransferase, or UGT) family enzymes in vitro. Briefly, UGT enzymes from overexpressed insect microsomes (Supersomes™, BD Gentest™) or animal tissue microsomes (Xenotech, BD Gentest™) were incubated with a cyanobenzothiazole substrate of the invention and the cofactor UDP-glucuronic acid (UDPGA) at 37° C. in buffer at physiological pH containing MgCl2 and alamethicin (typically, 50 mM TES, pH 7.5, 8 mM MgCl2, 4 mM UDPGA (Sigma) and 25 μg/mL alamethicin (Sigma)). Following the UGT enzyme reaction, an equal volume of P450-Glo Luciferin Detection Reagent (Promega) containing 15-30 mM D-cysteine-HCl.H2O (Sigma) was added and the plate was mixed and incubated at room temperature, typically for 20-30 minutes. […]
(§2) During this incubation, the cysteine reacts with the cyanobenzathiozole substrate to yield a D-luciferin derivative. […] Therefore, activity of the UGT enzyme can be measured by analyzing the difference (lower or no output) in relative light units (RLU) of a sample in which glucuronidation occurs compared to a sample that was run under the same conditions with no added UDPGA cofactor. […]
(§3) Reactions were assembled in a white 96-well plate. […] After the incubation was completed, the plate was read on a Veritas™ luminometer (Turner BioSystems, Inc.; Sunnyvale, Calif.). […]

[2] = biological target: T2, UGT 1A9 (Homo sapiens, UniProt O60656); experiment: UGT activity: utilization of substrate by recombinant UGT 1A9 Supersomes
T2 construct: purchased BD Gentest; host or cells: insect cells (microsomes)
T2 sequence (O60656 26-530): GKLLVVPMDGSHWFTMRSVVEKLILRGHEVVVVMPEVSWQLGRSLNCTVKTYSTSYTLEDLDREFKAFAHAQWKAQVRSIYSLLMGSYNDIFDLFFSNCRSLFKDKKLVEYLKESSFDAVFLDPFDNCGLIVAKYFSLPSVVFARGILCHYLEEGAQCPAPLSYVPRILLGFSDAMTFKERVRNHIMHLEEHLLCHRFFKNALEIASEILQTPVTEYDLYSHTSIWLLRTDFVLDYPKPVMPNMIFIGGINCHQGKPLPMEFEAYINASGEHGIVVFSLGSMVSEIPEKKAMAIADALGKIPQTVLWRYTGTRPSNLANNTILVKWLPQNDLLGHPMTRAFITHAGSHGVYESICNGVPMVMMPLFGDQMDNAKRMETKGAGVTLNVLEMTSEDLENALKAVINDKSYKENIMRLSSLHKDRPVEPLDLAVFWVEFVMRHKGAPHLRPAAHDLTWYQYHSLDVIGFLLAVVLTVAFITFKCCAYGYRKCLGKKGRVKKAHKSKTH
Experimental: as §1, §2, §3

[3] = biological target: T3, UGT 2B7 (Homo sapiens, UniProt P16662); experiment: UGT activity: utilization of substrate by recombinant UGT 2B7 Supersomes
T3 construct: purchased BD Gentest; host or cells: insect cells (microsomes)
T3 sequence (P16662 24-529): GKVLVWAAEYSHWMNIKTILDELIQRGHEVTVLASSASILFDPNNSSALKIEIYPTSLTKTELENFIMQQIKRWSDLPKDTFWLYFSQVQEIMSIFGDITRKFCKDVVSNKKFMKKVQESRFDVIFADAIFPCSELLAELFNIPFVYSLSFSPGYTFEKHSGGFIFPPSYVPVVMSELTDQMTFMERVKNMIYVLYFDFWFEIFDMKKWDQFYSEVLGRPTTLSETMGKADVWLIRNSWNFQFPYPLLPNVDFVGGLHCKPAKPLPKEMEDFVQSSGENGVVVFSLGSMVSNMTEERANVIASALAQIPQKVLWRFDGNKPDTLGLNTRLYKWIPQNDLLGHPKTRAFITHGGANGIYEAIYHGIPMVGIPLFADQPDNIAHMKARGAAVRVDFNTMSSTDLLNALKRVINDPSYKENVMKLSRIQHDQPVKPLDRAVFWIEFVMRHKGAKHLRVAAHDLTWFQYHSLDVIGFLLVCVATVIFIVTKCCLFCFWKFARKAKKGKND
Experimental: as §1, §2, §3

| Structure (SMILES) | % utilization by UGT 1A1 [1] | % utilization by UGT 1A9 [2] | % utilization by UGT 2B7 [3] |
| --- | --- | --- | --- |
| Cc1cc(O)cc2sc(C#N)nc12 [compound 3138] | over 50% | over 50% | over 50% |
| Cc1cc(O)cc2sc(C3=NC(C(=O)O)CS3)nc12 (stereo not drawn) [compound 3478] | ≤ 15% | ≤ 15% | ≤ 15% |
